In patent publication US5063208A, “Peptidyl aminodiol renin inhibitors” (Abbott Laboratories, priority 1990, dated 1991):

Biological target: T1, human renal renin (Homo sapiens, UniProt P00797)
T1 construct: human renal renin, free from acid proteolytic activity; from tissue
T1 sequence (P00797 67-406): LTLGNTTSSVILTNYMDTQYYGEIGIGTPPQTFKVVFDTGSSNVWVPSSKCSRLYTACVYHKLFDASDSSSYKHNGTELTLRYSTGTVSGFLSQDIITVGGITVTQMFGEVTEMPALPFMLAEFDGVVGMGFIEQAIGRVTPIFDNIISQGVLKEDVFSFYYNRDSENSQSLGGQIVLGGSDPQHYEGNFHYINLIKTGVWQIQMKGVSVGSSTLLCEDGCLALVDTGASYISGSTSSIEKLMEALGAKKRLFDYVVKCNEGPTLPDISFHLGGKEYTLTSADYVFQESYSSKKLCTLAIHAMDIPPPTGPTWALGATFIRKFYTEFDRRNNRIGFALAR
Experiment: Inhibition of human renal renin in vitro (angiotensin I formed measured by radioimmunoassay)
Type: biochemical
Details: human renal renin free from acid proteolytic activity, renin substrate human angiotensinogen, 37 degrees C, pH 6.0; read-out: IC50 (molar concentration required to cause 50% inhibition)
Description: The compounds of the invention are also useful for treating congestive heart failure in a mammal. […] At the end of the incubation, the amount of angiotensin I formed is measured by radioimmunoassay and the molar concentration required to cause 50% inhibition, expressed as the IC50, is calculated.

Compound | IC50
CCCC[C@H](NC(=O)C(Cc1ccccc1)CS(=O)(=O)C1CN(C)C1)C(=O)N[C@@H](CC1CCCCC1)[C@@H](O)[C@@H](O)CC(C)C (mixture of isomers) [Example 110, (2RS)-2-Benzyl-3-(1-methylazetidin-3-ylsulfonyl)propionyl-Nle Amide of (2S,3R,4S)-2-Amino-1-cyclohexyl-3,4-dihydroxy-6-methylheptane] | 2.3 nM
CC(C)C[C@H](O)[C@H](O)[C@H](CC1CCCCC1)NC(=O)[C@H](Cc1cscn1)NC(=O)[C@@H](CC(=O)N1CCN(CC(F)(F)F)CC1)Cc1ccccc1 [Example 94, (2R)-2-Benzyl-3-(4-trifluoroethylpiperazin-1-ylcarbonyl)propionyl-L-(4-thiazolyl)Ala Amide of (2S,3R,4S)-2-Amino-1-cyclohexyl-3,4-dihydroxy-6-methylheptane] | 0.57 nM
CC(C)C[C@H](O)[C@H](O)[C@H](CC1CCCCC1)NC(=O)[C@H](Cc1cscn1)NC(=O)[C@@H](CC(=O)CN1CCOCC1)Cc1ccccc1 [Example 95, (2R)-2-Benzyl-5-morpholin-4-yl-4-oxopentanoyl-L-(4-thiazolyl)Ala Amide of (2S,3R,4S)-2-Amino-1-cyclohexyl-3,4-dihydroxy-6-methylheptane] | 0.56 nM
CC(C)C[C@H](O)[C@H](O)[C@H](CC1CCCCC1)NC(=O)[C@H](Cc1cscn1)NC(=O)[C@@H](CC(=O)N(C)CCN1CCOCC1)Cc1ccccc1 [Example 96, (2R)-2-Benzyl-3-[(2-morpholin-4-ylethyl)methylaminocarbonyl]propionyl-L-(4-thiazolyl)Ala Amide of (2S,3R,4S)-2-Amino-1-cyclohexyl-3,4-dihydroxy-6-methylheptane] | 0.4 nM
CC(C)C[C@H](O)[C@H](O)[C@H](CC1CCCCC1)NC(=O)[C@H](Cc1cscn1)NC(=O)[C@H](Cc1ccccc1)Cc1cscn1 [Example 97, (2R)-2-Benzyl-3-thiazol-4-ylpropionyl-L-(4-thiazolyl)Ala Amide of (2S,3R,4S)-2-Amino-1-cyclohexyl-3,4-dihydroxy-6-methylheptane] | 0.68 nM
CC(C)C[C@H](O)[C@H](O)[C@H](CC1CCCCC1)NC(=O)[C@H](Cc1cscn1)NC(=O)[C@@H](CC(=O)CS(=O)(=O)C(C)(C)C)Cc1ccccc1 [Example 98, (2R)-2-Benzyl-5-tert-butylsulfonyl-4-oxopentanoyl-L-(4-thiazolyl)Ala Amide of (2S,3R,4S)-2-Amino-1-cyclohexyl-3,4-dihydroxy-6-methylheptane] | 0.45 nM
CC(C)C[C@H](O)[C@H](O)[C@H](CC1CCCCC1)NC(=O)[C@H](Cc1cscn1)NC(=O)[C@@H](CC(=O)C[S+]([O-])C(C)(C)C)Cc1ccccc1 (stereo partly drawn) [Example 99, (2R)-2-Benzyl-5-tert-butylsulfinyl-4-oxopentanoyl-L-(4-thiazolyl)Ala Amide of (2S,3R,4S)-2-Amino-1-cyclohexyl-3,4-dihydroxy-6-methylheptane] | 0.91 nM
CON(C)C[C@@H](Cc1ccccc1)C(=O)N[C@@H](Cc1cscn1)C(=O)N[C@@H](CC1CCCCC1)[C@@H](O)[C@@H](O)CC(C)C [Example 100, (2R)-2-Benzyl-3-(N-methoxy-N-methylamino)propionyl-L-(4-thiazolyl)Ala Amide of (2S,3R,4S)-2-Amino-1-cyclohexyl-3,4-dihydroxy-6-methylheptane] | 1.8 nM
CC(C)C[C@H](O)[C@H](O)[C@H](CC1CCCCC1)NC(=O)[C@H](Cc1cscn1)NC(=O)[C@H](Cc1ccccc1)Cn1cccn1 [Example 101, (2R)-2-Benzyl-3-pyrazol-1-ylpropionyl-L-(4-thiazolyl)Ala Amide of (2S,3R,4S)-2-Amino-1-cyclohexyl-3,4-dihydroxy-6-methylheptane] | 0.67 nM
CC(C)C[C@H](O)[C@H](O)[C@H](CC1CCCCC1)NC(=O)[C@H](Cc1cscn1)NC(=O)[C@H](Cc1ccccc1)Cn1ccnc1 [Example 102, (2R)-2-Benzyl-3-imidazol-1-ylpropionyl-L-(4-thiazolyl)Ala Amide of (2S,3R,4S)-2-Amino-1-cyclohexyl-3,4-dihydroxy-6-methylheptane] | 0.69 nM
CN=c1scc(C[C@@H](Cc2ccccc2)C(=O)N[C@@H](Cc2cscn2)C(=O)N[C@@H](CC2CCCCC2)[C@@H](O)[C@@H](O)CC(C)C)n1C [Example 103, (2R)-2-Benzyl-3-(2-methylimino-3-methyl-2,3-dihydrothiazol-4-yl)propionyl-L-(4-thiazolyl) Ala Amide of (2S,3R,4S)-2-Amino-1-cyclohexyl-3,4-dihydroxy-6-methylheptane] | 0.43 nM
CC(C)C[C@H](O)[C@H](O)[C@H](CC1CCCCC1)NC(=O)[C@H](Cc1cscn1)NC(=O)[C@H](Cc1ccccc1)Cc1csc(N(C)C)n1 [Example 104, (2R)-2-Benzyl-3-(2-dimethylaminothiazol-4-yl)propionyl-L-(4-thiazolyl)Ala Amide of (2S,3R,4S)-2-Amino-1-cyclohexyl-3,4-dihydroxy-6-methylheptane] | 0.43 nM
CC(C)C[C@H](O)[C@H](O)[C@H](CC1CCCCC1)NC(=O)[C@H](Cc1cscn1)NC(=O)[C@@H](CC1=CSC2=NCCN12)Cc1ccccc1 [Example 105, (2R)-2-Benzyl-3-(5,6-dihydroimidazo[2,1-b]thiazol-3-yl)propionyl-L-(4-thiazolyl)Ala Amide of (2S,3R,4S)-2-Amino-1-cyclohexyl-3,4-dihydroxy-6-methylheptane] | 1.1 nM
CC(C)C[C@H](O)[C@H](O)[C@H](CC1CCCCC1)NC(=O)[C@H](Cc1cccs1)NC(=O)[C@@H](CC(=O)N(C)CCn1cccn1)Cc1ccccc1 [Example 106, (2R)-2-Benzyl-3-[(2-pyrazol-1-ylethyl)methylaminocarbonyl]propionyl-L-(2-thienyl)Ala Amide of (2S,3R,4S)-2-Amino-1-cyclohexyl-3,4-dihydroxy-6-methylheptane] | 0.38 nM
CC(C)C[C@H](O)[C@H](O)[C@H](CC1CCCCC1)NC(=O)[C@H](Cn1ccnc1)NC(=O)[C@@H](CC(=O)N(C)CCn1cccn1)Cc1ccccc1 [Example 107, (2R)-2-Benzyl-3-[(2-pyrazol-1-ylethyl)methylaminocarbonyl]propionyl-L-(1-imidazolyl)Ala Amide of (2S,3R,4S)-2-Amino-1-cyclohexyl-3,4-dihydroxy-6-methylheptane] | 0.89 nM
CC(C)C[C@H](O)[C@H](O)[C@H](CC1CCCCC1)NC(=O)[C@H](Cc1cscn1)NC(=O)[C@@H](Cc1ccccc1)CS(=O)(=O)C1CN(C)C1 [Example 108, (2R)-2-Benzyl-3-(1-methylazetidin-3-ylsulfonyl)propionyl-L-(4-thiazolyl)AlaAmide of (2S,3R,4S)-2-Amino-1-cyclohexyl-3,4-dihydroxy-6-methylheptane] | 0.44 nM
CC(C)C[C@H](O)[C@H](O)[C@H](CC1CCCCC1)NC(=O)[C@H](Cc1cscn1)NC(=O)[C@@H](Cc1ccccc1)CS(=O)(=O)N(C)CCc1ccccn1 [Example 109, (2R)-2-Benzyl-3-[[2-pyridin-2-ylethyl(methyl)amino]sulfonyl]propionyl-L-(4-thiazolyl)Ala Amide of (2S,3R,4S)-2-Amino-1-cyclohexyl-3,4-dihydroxy-6-methylheptane] | 0.25 nM
CC(C)C[C@H](NC(=O)[C@H](Cc1cscn1)NC(=O)[C@@H](CC(=O)N(C)CCn1cccn1)Cc1ccccc1)[C@@H](O)[C@@H](O)CC(C)C [Example 111, (2R)-2-Benzyl-3-[(2-pyrazol-1-ylethyl)methylaminocarbonyl]propionyl-L-(4-Thiazolyl)Ala Amide of (4S,5R,6S)-6-Amino-4,5-dihydroxy-2,8-dimethylnonane] | 0.49 nM
CC[C@H](O)[C@H](O)[C@H](CC1CCCCC1)NC(=O)[C@H](Cc1cscn1)NC(=O)[C@@H](CC(=O)N(C)CCn1cccn1)Cc1ccccc1 [Example 112, (2R)-2-Benzyl-3-[(2-pyrazol-1-ylethyl)methylaminocarbonyl]propionyl-L-(4-Thiazolyl)Ala Amide of (2S,3R,4S)-2-Amino-1-cyclohexyl-3,4-dihydroxyhexane] | 0.25 nM
CC(C)C[C@H](O)[C@H](O)[C@H](CC1CCCCC1)NC(=O)[C@H](Cc1cscn1)NC(=O)[C@H](Cc1ccccc1)N1CCOCC1 [Example 113, (2S)-2-(4-Morpholinyl)-3-phenylpropionyl-L-(4-thiazolyl)Ala Amide of (2S,3R,4S)-2-Amino-1-cyclohexyl-3,4-dihydroxy-6-methylheptane] | 0.15 nM
CC(C)C[C@H](O)[C@H](O)[C@H](CC1CCCCC1)NC(=O)[C@H](Cc1cscn1)NC(=O)[C@@H](CC(=O)N(C)CCc1ccccn1)Cc1ccccc1 [Example 114] | 0.33 nM
COc1ccc(C[C@H](NC(=O)N(C)CCc2ccccn2)C(=O)N[C@@H](Cc2cscn2)C(=O)N[C@@H](CC2CCCCC2)[C@@H](O)[C@@H](O)CC(C)C)cc1 [Example 115, [2-Pyridin-2-ylethyl(methyl)amino]carbonyl(O-methyl)pyrosine-L-(4-thiazolyl)Ala Amide of (2S,3R,4S)-2-Amino-1-cyclohexyl-3,4-dihydroxy-6-methylheptane] | 0.78 nM
CC(C)C[C@H](O)[C@H](O)[C@H](CC1CCCCC1)NC(=O)[C@H](Cc1cscn1)NC(=O)[C@@H](CC(=O)N(C)CCN1CCN(C)CC1)Cc1ccccc1 [Example 116, (2R)-2-Benzyl-3-[2-(4-methyloioerazin-1-ylethyl)methylaminocarbonyl]propionyl-L-(4-thiazolyl) Ala Amide of (2S,3R,4S)-2-Amino-1-cyclohexyl-3,4-dihydroxy-6-methylheptane] | 0.35 nM
